Reference: US20230085307A1, “PYRIDAZINONE COMPOUND AND HERBICIDE” (NISSAN CHEMICAL CORPORATION, priority 2019, published 2023)

Experiments:
[1] = test system: late watergrass; assay: Test Example 1: herbicidal activity, application before weed generation under submerged conditions (Table 16, symbol A); assay type: in vivo, late watergrass (Echinochloa oryzicola); details: amount of applied herbicide 320 g/ha
Summary of the method: (§1)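 Emulsion formulation, water-diluted to set dose, was put onto the flooded surface (4 cm depth, alluvial soil) the same day weeds were sown and 2.5-leaf rice transplanted. After 3 weeks at 25-30 °C under glass, each species was rated 0 (≤5% kill) to 5 (≥90% kill).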

[2] = test system: Japanese bulrush; assay: Test Example 1: herbicidal activity, application before weed generation under submerged conditions (Table 16, symbol B); assay type: in vivo, Japanese bulrush (Schoenoplectus juncoides); details: amount of applied herbicide 320 g/ha
Summary of the method: as §1

[3] = test system: oval-leafed pondweed; assay: Test Example 1: herbicidal activity, application before weed generation under submerged conditions (Table 16, symbol C); assay type: in vivo, oval-leafed pondweed (Monochoria vaginalis); details: amount of applied herbicide 320 g/ha
Summary of the method: as §1

[4] = test system: barnyard grass; assay: Test Example 3: herbicidal effect by foliage application, Wagner pot (Table 18, symbol H); assay type: in vivo, barnyard grass (Echinochloa crus-galli); details: 320 g/ha
Summary of the method: (§2)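 Plants were sown in alluvial soil held under 0.1–0.5 cm standing water and grown 14 days in a greenhouse at 25–30 °C. An emulsifiable formulation, water-diluted to the set dose, was then sprayed onto the foliage, and effects were scored three weeks later using previously defined criteria.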

[5] = test system: Chinese sprangletop; assay: Test Example 3: herbicidal effect by foliage application, Wagner pot (Table 18, symbol D); assay type: in vivo, chinese sprangletop (Leptochloa chinensis); details: 320 g/ha
Summary of the method: as §2

[6] = test system: rice flat sedge; assay: Test Example 3: herbicidal effect by foliage application, Wagner pot (Table 18, symbol E); assay type: in vivo, rice flat sedge (Cyperus iria); details: 320 g/ha
Summary of the method: as §2

[7] = test system: southern crabgrass; assay: Test Example 4: herbicidal effect by soil treatment (Table 19, symbol F); assay type: in vivo, southern crabgrass (Digitaria ciliaris); details: amount of applied herbicide 320 g/ha
Summary of the method: (§3)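 Emulsion of test compound, water-diluted to predetermined amount, sprayed on soil after sowing (seed depth ~1.5 cm, sterilized diluvial soil). Greenhouse, 25–30° C. Effect graded at three weeks post-spray.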

[8] = test system: green foxtail; assay: Test Example 4: herbicidal effect by soil treatment (Table 19, symbol G); assay type: in vivo, green foxtail (Setaria viridis); details: amount of applied herbicide 320 g/ha
Summary of the method: as §3

[9] = test system: barnyard grass; assay: Test Example 4: herbicidal effect by soil treatment (Table 19, symbol H); assay type: in vivo, barnyard grass (Echinochloa crus-galli); details: amount of applied herbicide 320 g/ha
Summary of the method: as §3

[10] = test system: wild oat; assay: Test Example 4: herbicidal effect by soil treatment (Table 19, symbol I); assay type: in vivo, wild oat (Avena fatua); details: amount of applied herbicide 320 g/ha
Summary of the method: as §3

[11] = test system: blackgrass; assay: Test Example 4: herbicidal effect by soil treatment (Table 19, symbol J); assay type: in vivo, blackgrass (Alopecurus myosuroides); details: amount of applied herbicide 320 g/ha
Summary of the method: as §3

[12] = test system: Italian ryegrass; assay: Test Example 4: herbicidal effect by soil treatment (Table 19, symbol K); assay type: in vivo, Italian ryegrass (Lolium multiflorum); details: amount of applied herbicide 320 g/ha
Summary of the method: as §3

[13] = test system: windgrass; assay: Test Example 4: herbicidal effect by soil treatment (Table 19, symbol L); assay type: in vivo, windgrass (Apera spica-venti); details: amount of applied herbicide 320 g/ha
Summary of the method: as §3

[14] = test system: velvetleaf; assay: Test Example 4: herbicidal effect by soil treatment (Table 19, symbol M); assay type: in vivo, velvetleaf (Abutilon theophrasti); details: amount of applied herbicide 320 g/ha
Summary of the method: as §3

[15] = test system: redroot pigweed; assay: Test Example 4: herbicidal effect by soil treatment (Table 19, symbol N); assay type: in vivo, redroot pigweed (Amaranthus retroflexus); details: amount of applied herbicide 320 g/ha
Summary of the method: as §3

[16] = test system: lambsquarters; assay: Test Example 4: herbicidal effect by soil treatment (Table 19, symbol O); assay type: in vivo, lambsquarters (Chenopodium album); details: amount of applied herbicide 320 g/ha
Summary of the method: as §3

[17] = test system: chickweed; assay: Test Example 4: herbicidal effect by soil treatment (Table 19, symbol P); assay type: in vivo, common chickweed (Stellaria media); details: amount of applied herbicide 320 g/ha
Summary of the method: as §3

[18] = test system: persian speedwell; assay: Test Example 4: herbicidal effect by soil treatment (Table 19, symbol R); assay type: in vivo, Persian speedwell (Veronica persica); details: amount of applied herbicide 320 g/ha
Summary of the method: as §3

[19] = test system: southern crabgrass; assay: Test Example 5: herbicidal effect by foliage application, plastic box (Table 20, symbol F); assay type: in vivo, southern crabgrass (Digitaria ciliaris); details: amount of applied herbicide 320 g/ha; foliage application after 14-day growth; evaluated three weeks after application
Summary of the method: (§4)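 Post-emergence foliar test in sterilized diluvial soil. Compound applied as water-diluted emulsion at a predetermined rate to 14-day-old plants; evaluation at three weeks.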

[20] = test system: green foxtail; assay: Test Example 5: herbicidal effect by foliage application, plastic box (Table 20, symbol G); assay type: in vivo, green foxtail (Setaria viridis); details: amount of applied herbicide 320 g/ha; foliage application after 14-day growth; evaluated three weeks after application
Summary of the method: as §4

[21] = test system: barnyard grass; assay: Test Example 5: herbicidal effect by foliage application, plastic box (Table 20, symbol H); assay type: in vivo, barnyard grass (Echinochloa crus-galli); details: amount of applied herbicide 320 g/ha; foliage application after 14-day growth; evaluated three weeks after application
Summary of the method: as §4

[22] = test system: wild oat; assay: Test Example 5: herbicidal effect by foliage application, plastic box (Table 20, symbol I); assay type: in vivo, wild oat (Avena fatua); details: amount of applied herbicide 320 g/ha; foliage application after 14-day growth; evaluated three weeks after application
Summary of the method: as §4

[23] = test system: blackgrass; assay: Test Example 5: herbicidal effect by foliage application, plastic box (Table 20, symbol J); assay type: in vivo, blackgrass (Alopecurus myosuroides); details: amount of applied herbicide 320 g/ha; foliage application after 14-day growth; evaluated three weeks after application
Summary of the method: as §4

[24] = test system: Italian ryegrass; assay: Test Example 5: herbicidal effect by foliage application, plastic box (Table 20, symbol K); assay type: in vivo, Italian ryegrass (Lolium multiflorum); details: amount of applied herbicide 320 g/ha; foliage application after 14-day growth; evaluated three weeks after application
Summary of the method: as §4

[25] = test system: windgrass; assay: Test Example 5: herbicidal effect by foliage application, plastic box (Table 20, symbol L); assay type: in vivo, windgrass (Apera spica-venti); details: amount of applied herbicide 320 g/ha; foliage application after 14-day growth; evaluated three weeks after application
Summary of the method: as §4

[26] = test system: velvetleaf; assay: Test Example 5: herbicidal effect by foliage application, plastic box (Table 20, symbol M); assay type: in vivo, velvetleaf (Abutilon theophrasti); details: amount of applied herbicide 320 g/ha; foliage application after 14-day growth; evaluated three weeks after application
Summary of the method: as §4

[27] = test system: redroot pigweed; assay: Test Example 5: herbicidal effect by foliage application, plastic box (Table 20, symbol N); assay type: in vivo, redroot pigweed (Amaranthus retroflexus); details: amount of applied herbicide 320 g/ha; foliage application after 14-day growth; evaluated three weeks after application
Summary of the method: as §4

[28] = test system: lambsquarters; assay: Test Example 5: herbicidal effect by foliage application, plastic box (Table 20, symbol O); assay type: in vivo, lambsquarters (Chenopodium album); details: amount of applied herbicide 320 g/ha; foliage application after 14-day growth; evaluated three weeks after application
Summary of the method: as §4

[29] = test system: chickweed; assay: Test Example 5: herbicidal effect by foliage application, plastic box (Table 20, symbol P); assay type: in vivo, common chickweed (Stellaria media); details: amount of applied herbicide 320 g/ha; foliage application after 14-day growth; evaluated three weeks after application
Summary of the method: as §4

[30] = test system: persian speedwell; assay: Test Example 5: herbicidal effect by foliage application, plastic box (Table 20, symbol R); assay type: in vivo, Persian speedwell (Veronica persica); details: amount of applied herbicide 320 g/ha; foliage application after 14-day growth; evaluated three weeks after application
Summary of the method: as §4

Structure (SMILES) | Herbicidal effect, A: late watergrass [1] | Herbicidal effect, B: Japanese bulrush [2] | Herbicidal effect, C: oval-leafed pondweed [3] | herbicidal effect on barnyard grass (H) [4] | herbicidal effect on Chinese sprangletop (D) [5] | herbicidal effect on rice flat sedge (E) [6] | Herbicidal effect by soil treatment, F: southern crabgrass [7] | Herbicidal effect by soil treatment, G: green foxtail [8] | Herbicidal effect by soil treatment, H: barnyard grass [9] | Herbicidal effect by soil treatment, I: wild oat [10] | Herbicidal effect by soil treatment, J: blackgrass [11] | Herbicidal effect by soil treatment, K: Italian ryegrass [12] | Herbicidal effect by soil treatment, L: windgrass [13] | Herbicidal effect by soil treatment, M: velvetleaf [14] | Herbicidal effect by soil treatment, N: redroot pigweed [15] | Herbicidal effect by soil treatment, O: lambsquarters [16] | Herbicidal effect by soil treatment, P: chickweed [17] | Herbicidal effect by soil treatment, R: persian speedwell [18] | Herbicidal effect by foliage application, F: southern crabgrass [19] | Herbicidal effect by foliage application, G: green foxtail [20] | also measured
CCCC(=O)Oc1c(C)nn(C)c(=O)c1-c1c(-c2ccc(OC(F)(F)F)cc2)sc2c(Cl)cccc12 [4-079] | 2 (Herbicidal rate of 20% or more and less than 40%) | 0 (Herbicidal rate of 5% or less (almost no effect)) | 0 (Herbicidal rate of 5% or less (almost no effect)) | 2 (Herbicidal rate of 20% or more and less than 40%) | 2 (Herbicidal rate of 20% or more and less than 40%) | 2 (Herbicidal rate of 20% or more and less than 40%) | 0 (Herbicidal rate of 5% or less (almost no effect)) | 0 (Herbicidal rate of 5% or less (almost no effect)) | 0 (Herbicidal rate of 5% or less (almost no effect)) | 0 (Herbicidal rate of 5% or less (almost no effect)) | 0 (Herbicidal rate of 5% or less (almost no effect)) | 0 (Herbicidal rate of 5% or less (almost no effect)) | 0 (Herbicidal rate of 5% or less (almost no effect)) | 0 (Herbicidal rate of 5% or less (almost no effect)) | 2 (Herbicidal rate of 20% or more and less than 40%) | 0 (Herbicidal rate of 5% or less (almost no effect)) | 0 (Herbicidal rate of 5% or less (almost no effect)) | 3 (Herbicidal rate of 40% or more and less than 70%) | 0 (Herbicidal rate of 5% or less (almost no effect)) | 0 (Herbicidal rate of 5% or less (almost no effect)) | Herbicidal effect by foliage application, H: barnyard grass [21]: 0 (Herbicidal rate of 5% or less (almost no effect)); Herbicidal effect by foliage application, I: wild oat [22]: 0 (Herbicidal rate of 5% or less (almost no effect)); Herbicidal effect by foliage application, J: blackgrass [23]: 0 (Herbicidal rate of 5% or less (almost no effect)); Herbicidal effect by foliage application, K: Italian ryegrass [24]: 0 (Herbicidal rate of 5% or less (almost no effect)); Herbicidal effect by foliage application, L: windgrass [25]: 3 (Herbicidal rate of 40% or more and less than 70%); Herbicidal effect by foliage application, M: velvetleaf [26]: 4 (Herbicidal rate of 70% or more and less than 90%); Herbicidal effect by foliage application, N: redroot pigweed [27]: 3 (Herbicidal rate of 40% or more and less than 70%); Herbicidal effect by foliage application, O: lambsquarters [28]: 3 (Herbicidal rate of 40% or more and less than 70%); Herbicidal effect by foliage application, P: chickweed [29]: 5 (Herbicidal rate of 90% or more (almost completely withered)); Herbicidal effect by foliage application, R: persian speedwell [30]: 5 (Herbicidal rate of 90% or more (almost completely withered))
COc1ccccc1-c1sc2c(C)cccc2c1-c1c(O)c(C)nn(C)c1=O [4-106] | 2 (Herbicidal rate of 20% or more and less than 40%) | 0 (Herbicidal rate of 5% or less (almost no effect)) | 0 (Herbicidal rate of 5% or less (almost no effect)) | 4 (Herbicidal rate of 70% or more and less than 90%) | 0 (Herbicidal rate of 5% or less (almost no effect)) | 5 (Herbicidal rate of 90% or more (almost completely withered)) | 3 (Herbicidal rate of 40% or more and less than 70%) | 1 (Herbicidal rate of 5% or more and less than 20%) | 0 (Herbicidal rate of 5% or less (almost no effect)) | 0 (Herbicidal rate of 5% or less (almost no effect)) | 0 (Herbicidal rate of 5% or less (almost no effect)) | 0 (Herbicidal rate of 5% or less (almost no effect)) | 3 (Herbicidal rate of 40% or more and less than 70%) | 0 (Herbicidal rate of 5% or less (almost no effect)) | 4 (Herbicidal rate of 70% or more and less than 90%) | 1 (Herbicidal rate of 5% or more and less than 20%) | 1 (Herbicidal rate of 5% or more and less than 20%) | 1 (Herbicidal rate of 5% or more and less than 20%) | 1 (Herbicidal rate of 5% or more and less than 20%) | 0 (Herbicidal rate of 5% or less (almost no effect)) | Herbicidal effect by foliage application, H: barnyard grass [21]: 1 (Herbicidal rate of 5% or more and less than 20%); Herbicidal effect by foliage application, I: wild oat [22]: 2 (Herbicidal rate of 20% or more and less than 40%); Herbicidal effect by foliage application, J: blackgrass [23]: 4 (Herbicidal rate of 70% or more and less than 90%); Herbicidal effect by foliage application, K: Italian ryegrass [24]: 4 (Herbicidal rate of 70% or more and less than 90%); Herbicidal effect by foliage application, L: windgrass [25]: 5 (Herbicidal rate of 90% or more (almost completely withered)); Herbicidal effect by foliage application, M: velvetleaf [26]: 3 (Herbicidal rate of 40% or more and less than 70%); Herbicidal effect by foliage application, N: redroot pigweed [27]: 4 (Herbicidal rate of 70% or more and less than 90%); Herbicidal effect by foliage application, O: lambsquarters [28]: 3 (Herbicidal rate of 40% or more and less than 70%); Herbicidal effect by foliage application, P: chickweed [29]: 5 (Herbicidal rate of 90% or more (almost completely withered)); Herbicidal effect by foliage application, R: persian speedwell [30]: 5 (Herbicidal rate of 90% or more (almost completely withered))
